Test results reported in patent publication US20150313825A1, “METHODS AND COMPOSITIONS FOR LOCALLY INCREASING BODY FAT” (TOPOKINE THERAPEUTICS, INC., priority 2012, published 2015).
Like-named read-outs stand apart in the source and are kept apart here. Marks after values point to notes of the source that are not given here.

What was measured:
subcutaneous fat [1] = test: Randomized controlled trial in mice, daily percutaneous application to right flank for 24 days (Example 1); assay type: in vivo, C57BL/6J mice; conditions: for Mean weight gain relative to vehicle / Mean weight gain / Local increase in subcutaneous fat (treated right flank vs untreated left flank): 5 mM in Lipoderm; for Mean weight gain relative to vehicle / Mean weight gain: 0.1 cc to flank daily, Day 0 until Day 24; for Mean weight gain: high-fat diet; for Local increase in subcutaneous fat (treated right flank vs untreated left flank): following 24 days of therapy
Protocol: The arms were as follows: vehicle (Lipoderm®), a thiazolidinedione (pioglitazone), harmine, an orexigenic compound (megestrol acetate), and efavirenz. Each compound was combined in the percutaneous Lipoderm® formulation at an equimolar concentration (5 mM). The Lipoderm® vehicle is adapted to deliver the respective compound percutaneously, i.e., across the skin and into subcutaneous fat. The formulations were applied daily to the right flank of each animal, whereas the left flank was used as an untreated control.
A randomized controlled trial was conducted on C57BL/6J. Male mice approximately six weeks old were prospectively randomized into groups and assigned to the following treatment conditions (n=5 animals per group):
Animals were shaved and depilated over the flanks at the start of the study.
Animals were kept in identical conditions and fed ab libitum with a standardized high-fat diet (70% kcal fat). Animals were weighed three times weekly. Following 24 consecutive days of treatment, mice were sacrificed and samples of skin and adjacent fat from the treated flanks are taken for histologic examination.

subcutaneous fat [2] = test: Clinical application for augmentation of the buttocks (Example 9); assay type: in vivo, human; conditions: 10 mg/ml in Lipoderm daily, after 6 months
Protocol: The following description exemplifies a clinical application of percutaneous administration of an orexigenic pregnane derivative for augmentation of the buttocks. A female or male patient wishes to undergo a buttocks augmentation procedure but is concerned about the risks of surgery. The physician prescribes a daily application of megestrol acetate (for example, 10 mg/ml in Lipoderm®) to the buttocks.

subcutaneous fat [3] = conditions: for Rosiglitazone Increase over Placebo (fat thickness), MEAN: 42 days, p<0.0001
Protocol: A prospective controlled trial was performed in 4 Gottingen minipigs (2 males, 2 females). Hair on the back was clipped. […] An equivalent Vehicle Treatment Area was marked on the left side of the animal, such that the two treatment areas were anatomically equivalent. […] After 42 days of treatment, plasma pharmacokinetics (PK) was assessed on all animals by Liquid Chromatography/Tandem Mass Spectrometry. Necropsy was done and samples of skin, subcutaneous fat, and muscle were collected en bloc from each treatment area in a controlled fashion. […] Table 5 presents the thicknesses of subcutaneous fat on each of six treated and control (vehicle) locations, by animal. […] Table 6 compares plasma PK following percutaneous administration (present study) with plasma PK following oral administration in humans.

[4] = oral, 4 mg/d, humans; cited from earlier work
subcutaneous fat [5] = test: Mouse study of percutaneous rosiglitazone, methods of Example 1 (Example 2); conditions: rosiglitazone 0.1% or 0.3% by weight

Row | Compound | Mean weight gain relative to vehicle (subcutaneous fat [1]) [%] | Mean weight gain (subcutaneous fat [1]) [g] | Local increase in subcutaneous fat (treated right flank vs untreated left flank) (subcutaneous fat [1]) | other results
1 | O=C1Nc2ccc(Cl)cc2[C@@](C#CC2CC2)(C(F)(F)F)O1 [Efavirenz] | 92 | 6.1 | did not exhibit any increase in fat or asymmetry | –
2 | COc1ccc2c(c1)[nH]c1c(C)nccc12 [Harmine] | 102 | 6.8 | did not exhibit any increase in fat or asymmetry | –
3 | CC(=O)O[C@]1(C(C)=O)CC[C@H]2[C@@H]3C=C(C)C4=CC(=O)CC[C@]4(C)[C@H]3CC[C@@]21C [Megestrol acetate] | 120 | 8.0 | local increases in subcutaneous fat | Relative skin fold thickness of the left and right flanks (subcutaneous fat [1]; Day 24, treated vs untreated flank): asymmetric, with thicker skin folds on the treated flanks; Skin fold thickness, right (treated) flank (subcutaneous fat [1]; representative mouse, 24 days of treatment, untreated left flank about 2 mm): about 4 mm; Clinical size of buttocks (subcutaneous fat [2]): the buttocks appear clinically larger
4 | CCc1ccc(CCOc2ccc(CC3SC(=O)NC3=O)cc2)nc1 (stereo not drawn) [Pioglitazone] | 112 | 7.4 | – | –
5 | CN(CCOc1ccc(CC2SC(=O)NC2=O)cc1)c1ccccn1 (stereo not drawn) [Rosiglitazone] | – | – | – | Fat Thickness (mm), Rosiglitazone Treatment Area, MEAN (subcutaneous fat [3]; mean of 24 locations, vehicle mean 4.39, p < .0001 (paired t-test)): 6.29* mm; Rosiglitazone Increase over Placebo (fat thickness), MEAN (subcutaneous fat [3]): 48%; Rosiglitazone Increase over Placebo (fat thickness), MEAN (subcutaneous fat [3]; listed as rosiglitazone): 48%; Tolerability, skin irritation and clinical observations (subcutaneous fat [3]; minipig, in vivo): well tolerated, with no evidence of skin irritation or other clinical observations; Peak plasma level (Cmax) [4]: 355 ng/mL; Plasma exposure (AUC0-24) [4]: 2542 ng·h/mL; Adverse effects (subcutaneous fat [5]): No adverse effects were noted
